# “And” between values parts separate entries of the source, which are not always exact repeats. Identical values can stand only once. Like-named read-outs stand apart in the source and are kept apart here. Where no end group is shown, it is not given here. The star is where a group is joined. Acm = CC(=O)NC*
# What was measured:
# [1] = test system: human platelets in platelet-rich plasma; experiment: Platelet aggregation inhibition assay (ADP-induced, platelet-rich plasma); format: cell-based
# Experimental: Platelet aggregation studies were performed essentially as described by Zucker (1989, Methods in Enzymol. 169: 117-133). Briefly, platelet aggregation was assayed with or without putative platelet aggregation inhibitory compounds using fresh human platelet-rich plasma, comprising 300,000 platelets per microliter. Platelet aggregation was induced by the addition of a solution of adenosine diphosphate to a final concentration of 10 to 15 micromolar, and the extent of platelet aggregation monitored using a Bio/Data aggregometer (Bio/Data Corp., Horsham, Pa.). The concentrations of platelet aggregation inhibitory compounds used were varied from 0.1 to 500 μg/mL. The concentration of inhibitor that reduced the extent of platelet aggregation by 50% (defined as the IC50) was determined from plots of inhibitor concentration versus extent of platelet aggregation. An inhibition curve for peptide RGDS was determined for each batch of platelets tested.
# **concentration of reagent that inhibits by 50% the aggregation of human
# platelets in plateletrich plasma induced to aggregate by the addition of
# adenosine diphosphate (ADP)
# femoral vein thrombus [2] = experiment: Canine model of DVT: thrombus uptake and imaging of Tc-99m labeled reagent; format: in vivo; conditions: approximately 4 h postinjection
# Experimental: *ratio of (% injected dose/g in a femoral vein thrombus)/(% injected
# dose/g in blood) at approximately 4 h postinjection of each Tc99 m labele
# reagent in a canine model of DVT
# femoral vein thrombus [3] = experiment: as above; conditions: in vivo canine model system
# deep-vein thrombi = experiment: Pilot human clinical study: scintigraphic imaging of deep-vein thrombi; format: in vivo; conditions: Tc-99m labeled
# Experimental: A series of experiments comprising a pilot human clinical study of one embodiment of the scintigraphic imaging agents of the invention, designated P280, having the chemical structure:
# were performed. These experiments were performed on 9 human patients (6 males, 3 females), ages 30 to 60 years and weighing 63 to 100 kg. Each of the patients presented clinically with the symptoms of deep-vein thrombosis, and the diagnosis was confirmed by physical work-up, ultrasonography and/or contrast venography.
# Each patient in the study was administered 10-22 mCi Tc-99m labeled P280 comprising approximately 0.25 mg peptide, by intravenous injection. Scintigraphic imaging was then performed over four hours using a large field-of-view gamma camera equipped with a high-resolution collimator (photopeaked at 140 keV, with a 20%±window). Gamma camera imaging was commenced simultaneously with injection. Anterior images followed by posterior images over the legs were acquired over the first hour, then at 2 and 4 hours post-injection.
# [4] = human platelet-rich plasma, aggregation induced by ADP, read-out: IC50 (concentration of reagent that inhibits by 50% the aggregation of human platelets)
substance,measurement,setting,value
CH2 CO--YD ApcGDCGGCAcm GCAcm GGC-amide [Peptide P246],IC50,[1]; [4],850 nM
same,Clot/Blood: ratio of (% injected dose/g in a femoral vein thrombus)/(% injected dose/g in blood),femoral vein thrombus [2],4.4 ± 1.8
AcSYGRGDVRGDFKCAcm GCAcm (SEQ ID NO: 6) (Ac-SYGRGDVRGDFKC(Acm)GC(Acm)) [Peptide P47],IC50,[1]; [4],23000 nM
same,Clot/Blood: ratio of (% injected dose/g in a femoral vein thrombus)/(% injected dose/g in blood),femoral vein thrombus [2],1.0
CH2 CO--YD RGDCGGCAcm GCAcm amide [Peptide P143],IC50,[1]; [4],1300 nM
same,Clot/Blood: ratio of (% injected dose/g in a femoral vein thrombus)/(% injected dose/g in blood),femoral vein thrombus [2],1.4
(CH2 COYD.Apc.GDCGGCAcm GCAcm GGCamide)2 (CH2 CO)2 K(Nε-K)GCamide [Peptide P667],IC50,[1]; [4],81 nM
same,Clot/Blood: ratio of (% injected dose/g in a femoral vein thrombus)/(% injected dose/g in blood),femoral vein thrombus [2],5.9 and 5.0
GRGDVRGDFKCAcm GCAcm amide (SEQ ID NO: 3) (GRGDVRGDFKC(Acm)GC(Acm)-NH2; N-terminus assumed; SMILES CC(=O)NCSC[C@H](NC(=O)CNC(=O)[C@H](CSCNC(C)=O)NC(=O)[C@H](CCCCN)NC(=O)[C@H](Cc1ccccc1)NC(=O)[C@H](CC(=O)O)NC(=O)CNC(=O)[C@H](CCCNC(=N)N)NC(=O)[C@@H](NC(=O)[C@H](CC(=O)O)NC(=O)CNC(=O)[C@H](CCCNC(=N)N)NC(=O)CN)C(C)C)C(N)=O) [Peptide P97],IC50,[1]; [4],8000 nM
same,Clot/Blood: ratio of (% injected dose/g in a femoral vein thrombus)/(% injected dose/g in blood),femoral vein thrombus [2],1.0
CH2 CO--YD RGDCCAcm GCAcm amide [Peptide P81],IC50,[1]; [4],25000 nM
same,Clot/Blood: ratio of (% injected dose/g in a femoral vein thrombus)/(% injected dose/g in blood),femoral vein thrombus [2],1.8 ± 0.6
(CH2 CO--YD ApcGDCGGCAcm GCAcm GGC-amide)2 -(BAT-BS) [Peptide P357],IC50,[1]; [4],79 nM
same,Clot/Blood: ratio of (% injected dose/g in a femoral vein thrombus)/(% injected dose/g in blood),femoral vein thrombus [2],6.3 ± 3.4
(CH2 CO--YD ApcGDCGGCAcm GCAcm GGC-amide)3 -TSEA [Peptide P317],IC50,[1]; [4],36 nM
same,Clot/Blood: ratio of (% injected dose/g in a femoral vein thrombus)/(% injected dose/g in blood),femoral vein thrombus [2],3.8 ± 2.2
CH2 CO--YD ApcGDCGGGCAm GCAcm amide [Peptide P154],IC50,[1]; [4],300 nM
same,Clot/Blood: ratio of (% injected dose/g in a femoral vein thrombus)/(% injected dose/g in blood),femoral vein thrombus [2],2.0 ± 0.5
(CH2 CO.YD ApcGDCGGCAcm GCAcm GGC.amide)2 -BSME [Peptide P280],IC50,"[1]; unlabeled reagent, read-out: IC50, platelet aggregation inhibition",87 nM
same,scintigraphic images of venous thrombi,femoral vein thrombus [3],excellent scintigraphic images
same,patients in whom thrombi were visualized,deep-vein thrombi; 9 patients with confirmed DVT,8 of the 9
same,toxicity or other adverse effects,"deep-vein thrombi; 10-22 mCi, approximately 0.25 mg peptide i.v., human patients",no toxicity or other adverse effects
same,time after injection at which thrombus visualization was evident,deep-vein thrombi; human patients with DVT,15 to 30 min
same,time post-injection for which thrombus remained visible,deep-vein thrombi; human patients with DVT,4 to 24 h
same,scintigraphic images of deep-vein thrombi,deep-vein thrombi; humans in vivo,excellent scintigraphic images
same,injected dose remaining in the circulation,"deep-vein thrombi; intravenous, 1 hour post-injection, human patients",less than 10%
same,injected dose cleared by the kidneys,"deep-vein thrombi; intravenous, human patients",60-70%
CAcm GCAcm RRRRRRRRRGDV (SEQ ID NO: 5) (C(Acm)GC(Acm)RRRRRRRRRGDV) [Peptide P32],IC50,[1]; [4],26000 nM
same,Clot/Blood: ratio of (% injected dose/g in a femoral vein thrombus)/(% injected dose/g in blood),femoral vein thrombus [2],1.2 ± 0.2
AcSYGRGDVRGDFKCTCCA (SEQ ID NO: 7) (Ac-SYGRGDVRGDFKCTCCA; cysteine pairing not given here) [Peptide P63],IC50,[1]; [4],19000 nM
same,Clot/Blood: ratio of (% injected dose/g in a femoral vein thrombus)/(% injected dose/g in blood),femoral vein thrombus [2],1.7
GRDGVRGDFCAcm GCAcm amide(SEQ ID NO: 8) (GRDGVRGDFC(Acm)GC(Acm)-NH2; N-terminus assumed; SMILES CC(=O)NCSC[C@H](NC(=O)CNC(=O)[C@H](CSCNC(C)=O)NC(=O)[C@H](Cc1ccccc1)NC(=O)[C@H](CC(=O)O)NC(=O)CNC(=O)[C@H](CCCNC(=N)N)NC(=O)[C@@H](NC(=O)CNC(=O)[C@H](CC(=O)O)NC(=O)[C@H](CCCNC(=N)N)NC(=O)CN)C(C)C)C(N)=O) [Peptide P98],IC50,[1]; [4],15000 nM
same,Clot/Blood: ratio of (% injected dose/g in a femoral vein thrombus)/(% injected dose/g in blood),femoral vein thrombus [2],1.7
(CH2 CO--YD ApcGDCKGCAcm GCAcm GGC-amide)2 -BSME [Peptide P381],IC50,[1]; [4],35 nM
same,Clot/Blood: ratio of (% injected dose/g in a femoral vein thrombus)/(% injected dose/g in blood),femoral vein thrombus [2],2.5
